# US6525001B1, “Substituted pyrimidine and pyridine herbicides” (Mid-American Commercialization Corporation, priority 1997, dated 2003)
# How the values were obtained:
# Assay in all cases: Test B pre-/postemergence
# Assay type in all cases: in vivo
# Parameters in all cases: key: 0 is no effect; 10 is complete control
# [1] = tested on: bedstraw (Galium aparine); conditions: for Bedstraw plant response rating: Preemergence
# How it was run: (§1)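 Compounds in a surfactant-containing, non-phytotoxic solvent blend are applied to freshly planted seed (preemergence) and, concurrently, to seedlings of 2 to 18 cm at 1–4 leaves (postemergence). Plants stay in the greenhouse twelve to sixteen days and are then scored visually from 0 (no effect) to 10 (complete control).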
# [2] = tested on: blackgrass (Alopecurus myosuroides); conditions: for Blackgrass plant response rating: Preemergence
# How it was run: as §1
# [3] = tested on: broadleaf signalgrass (Brachiaria decumbens); conditions: for B. signalgrass plant response rating: Preemergence
# How it was run: as §1
# [4] = tested on: cocklebur (Xanthium strumarium); conditions: for Cocklebur plant response rating: Preemergence
# How it was run: as §1
# corn (Zea mays) = conditions: for Corn plant response rating: Preemergence
# How it was run: as §1
# [5] = tested on: crabgrass (Digitaria sanguinalis); conditions: for Crabgrass plant response rating: Preemergence
# How it was run: as §1
# [6] = tested on: giant foxtail (Setaria faberii)
# How it was run: as §1
# [7] = tested on: momingglory (Ipomoea hederacea)
# How it was run: as §1
# [8] = tested on: pigweed (Amaranthus retroflexus)
# How it was run: as §1
# [9] = tested on: purple nutsedge (Cyperus rotundus); conditions: Rate 62 g/ha
# How it was run: as §1
# [10] = Rate 250 g/ha, Postemergence (so in the source)
compound,measurement,setting,value
Cc1cnc(-c2ccc(C(F)(F)F)cc2)nc1Cc1cccc(C#N)c1 [Compound 32],"Plant response rating, Bedstraw","[1]; Rate 62 g/ha, Postemergence",6
same,Bedstraw plant response rating,[1]; Rate 62 g/ha,3
same,"Plant response rating, Bedstraw","[1]; Rate 125 g/ha, Postemergence",6
same,Bedstraw plant response rating,[1]; Rate 125 g/ha,8
same,"Plant response rating, Bedstraw","[1]; Rate 250 g/ha, Postemergence",10
same,"Plant response rating, Bedstraw",[1]; [10],10
same,"Plant response rating, Blackgrass","[2]; Rate 62 g/ha, Postemergence",1
same,Blackgrass plant response rating,[2]; Rate 62 g/ha,1
same,"Plant response rating, Blackgrass","[2]; Rate 125 g/ha, Postemergence",2
same,Blackgrass plant response rating,[2]; Rate 125 g/ha,2
same,"Plant response rating, Blackgrass","[2]; Rate 250 g/ha, Postemergence",5
same,"Plant response rating, Blackgrass",[2]; [10],4
same,"Plant response rating, B. signalgrass","[3]; Rate 62 g/ha, Postemergence",1
same,B. signalgrass plant response rating,[3]; Rate 62 g/ha,2
same,"Plant response rating, B. signalgrass","[3]; Rate 125 g/ha, Postemergence",2
same,B. signalgrass plant response rating,[3]; Rate 125 g/ha,6
same,"Plant response rating, B. signalgrass","[3]; Rate 250 g/ha, Postemergence",2
same,"Plant response rating, B. signalgrass","[3]; Rate 250 g/ha, Postemergence as printed in head r139 (second section for compounds 26-50)",7
same,"Plant response rating, Cocklebur","[4]; Rate 62 g/ha, Postemergence",8
same,Cocklebur plant response rating,[4]; Rate 62 g/ha,0
same,"Plant response rating, Cocklebur","[4]; Rate 125 g/ha, Postemergence",8
same,Cocklebur plant response rating,[4]; Rate 125 g/ha,0
same,"Plant response rating, Cocklebur","[4]; Rate 250 g/ha, Postemergence",9
same,"Plant response rating, Cocklebur",[4]; [10],0
same,"Plant response rating, Corn","corn (Zea mays); Rate 62 g/ha, Postemergence",1
same,Corn plant response rating,corn (Zea mays); Rate 62 g/ha,0
same,"Plant response rating, Corn","corn (Zea mays); Rate 125 g/ha, Postemergence",1
same,Corn plant response rating,corn (Zea mays); Rate 125 g/ha,0
same,"Plant response rating, Corn","corn (Zea mays); Rate 250 g/ha, Postemergence",1
same,"Plant response rating, Corn",corn (Zea mays); [10],0
same,"Plant response rating, Crabgrass","[5]; Rate 62 g/ha, Postemergence",1
same,Crabgrass plant response rating,[5]; Rate 62 g/ha,1
same,"Plant response rating, Crabgrass","[5]; Rate 125 g/ha, Postemergence",2
same,Crabgrass plant response rating,[5]; Rate 125 g/ha,1
same,"Plant response rating, Crabgrass","[5]; Rate 250 g/ha, Postemergence",2
same,"Plant response rating, Crabgrass",[5]; [10],3
same,"Plant response rating, Giant foxtail","[6]; Rate 62 g/ha, Postemergence",1
same,Giant foxtail plant response rating,"[6]; Rate 62 g/ha, Preemergence",1
same,Giant foxtail plant response rating,"[6]; Rate 125 g/ha, Postemergence",1
same,Giant foxtail plant response rating,"[6]; Rate 125 g/ha, Preemergence",2
same,"Plant response rating, Giant foxtail","[6]; Rate 250 g/ha, Postemergence",2
same,"Plant response rating, Giant foxtail",[6]; [10],5
same,"Plant response rating, Morningglory","[7]; Rate 62 g/ha, Postemergence",7
same,Morningglory plant response rating,"[7]; Rate 62 g/ha, Preemergence",1
same,Morningglory plant response rating,"[7]; Rate 125 g/ha, Postemergence",8
same,Morningglory plant response rating,"[7]; Rate 125 g/ha, Preemergence",2
same,"Plant response rating, Morningglory","[7]; Rate 250 g/ha, Postemergence",10
same,"Plant response rating, Morningglory",[7]; [10],3
same,"Plant response rating, Redroot pigweed","[8]; Rate 62 g/ha, Postemergence",6
same,Redroot pigweed plant response rating,"[8]; Rate 62 g/ha, Preemergence",8
same,Redroot pigweed plant response rating,"[8]; Rate 125 g/ha, Postemergence",9
same,Redroot pigweed plant response rating,"[8]; Rate 125 g/ha, Preemergence",10
same,"Plant response rating, Redroot pigweed","[8]; Rate 250 g/ha, Postemergence",9
same,"Plant response rating, Redroot pigweed",[8]; [10],10
same,"Plant response rating, Nutsedge",[9]; Postemergence,0
same,Nutsedge plant response rating,[9]; Preemergence,0
